{"source": "patent US20230364069A1", "about": "“METHOD FOR TREATING NON-ALCOHOLIC STEATOHEPATITIS THROUGH CO-ADMINISTRATION OF CURCUMIN DERIVATIVE AND TGF-B RECEPTOR INHIBITOR” (UNIVERSITY INDUSTRY FOUNDATION, YONSEI UNIVERSITY WONJU …, priority 2021, published 2023)", "key": {"[1]": {"system": "AML12 cells (mouse hepatocyte cell lines)", "experiment": "Fibrosis markers by Western blotting after TGF-β induction, TGF-β receptor inhibitor", "format": "cell-based", "details": "2 ng/ml TGF-β, 10 μM EW-7197, 24 hours, FIG. 2", "experimental": "Cell experiments were performed by using AML12, […], and LX-2 cells, a human hepatic stellate cell.\nAML12 cells were cultured in a culture medium made by adding 5 ml of insulin (ITS), 40 ng/ml of dexamethasone, 1% penicillin streptomycin (anti-anti), and 10% fetal bovine serum (FBS) to F-12 media (Corning Incorporated, USA, Arizona), a mixture of a DMEM medium and Ham's F-12 at a ratio of 50:50, which is used for culturing hepatocytes or prostate epithelial cells.\nFibrosis was induced in hepatocytes with TGF-β, a TGF-β receptor inhibitor was administered, and fibrosis was checked.\nSpecifically, 2 ng/ml of TGF-β was administered to the cells of Example 1-1, and administered or not administered with 10 μM EW-7197 (EW), and cultured for 24 hours. The control group (Con) was not treated with either TGF-β or the sample. […] A protein concentration was measured by BCA assay (Pierce Biotechnology Inc). […] Then, the membranes were washed, briefly incubated with Pico Enhanced Peroxidase Detection (EPD) Western reagent (ELPISBIOTECH. INC.) according to the manufacturer's procedure, and quantified by using an image analyzer (ImageQuant™ LAS 500, GE Healthcare Bio-Sciences AB, Uppsala, Sweden). β-actin was used as an internal control. Densitometry of protein intensity was quantified by using ImageJ (National Institutes of Health). […]"}, "[2]": {"system": "C57BL/6 mice in which steatohepatitis was induced with a methionine-choline deficient diet", "experiment": "Steatohepatitis animal model (MCD), curcumin 5-8 and low-concentration EW-7197 (5 mg/kg)", "format": "in vivo, mouse", "details": "MCD-fed C57BL/6 mice, 6 weeks; EW-7197 5 mg/kg oral; curcumin 5-8 1 g per 1 kg diet", "experimental": "8-week-old male C57BL/6 mice weighing 20 to 25 g were purchased from Dae Han Bio Link Co., Ltd. (Chungbuk). […] Mice were fed with a normal diet (Research Diets, RD) and allowed to drink water freely. […] In order to confirm the physiological changes in case of co-administration of a curcumin derivative (Cur5-8) and a TGF-β receptor inhibitor (EW-7197), the liver weights and the concentrations of TG, TC, AST, ALT, and γ-GT in serum were measured. In addition, hydroxyprolin expression was checked as a fibrosis marker in the liver tissues. Specifically, the weights of the liver tissues harvested in Examples 2-1 and 2-2 were measured before storage. […] In order to measure blood glucose, triglyceride, cholesterol, and AST and ALT concentrations, ELISA kit of Asan Pharm. Co., Ltd. was purchased, and the measuring was performed. γ-GT in the liver was measured by using Mak089 of Sigma-Aldrich, and hydroxyproline was measured by using STA-675 ELISA kit of Cell Biolabs, Inc. In addition, the hydroxyprolin expression was checked in the liver tissues harvested in Examples 2-1 and 2-2. In order to check effects of inhibiting fat accumulation in liver tissues and fibrosis in liver tissues in case of co-administration of a curcumin derivative (Cur5-8) and a TGF-β receptor inhibitor (EW-7197), the liver tissues were stained. The liver tissues harvested in Examples 2-1 and 2-2 were fixed with 10% formaldehyde, the formaldehyde was washed out with running water for more than 12 hours, and then washing was performed with 60% ethanol at a one-hour interval, with 70% ethanol at a one-hour interval, and with 100% ethanol at a one-hour interval. Then, the transparency process in xylene was performed three times for one hour each, and the infiltration process in paraffin was performed twice for one hour each. Then, the paraffin block was cut to a thickness of about […] to obtain slices. […] In addition, H&E-stained liver slices were evaluated by using the NAFLD activity score (NAS) system. […]"}, "renal fibrosis model": {"system": "renal fibrosis model", "details": "unilateral ureteral obstruction (UUO); previous studies; cited from earlier work"}}, "data": [{"smiles": "Cc1cccc(-c2[nH]c(CNc3ccccc3F)nc2-c2ccc3ncnn3c2)n1", "note": "[EW-7197, N-(2-fluorophenyl)-5-(6-methyl-2-pyridinyl)-4-[1,2,4]triazolo[1,5-a]pyridin-6-yl-1H-imidazole-2-methanamine]", "values": [{"measurement": "protein expressions of α-SMA, Coll, p-SMAD2, and p-SMAD3 increased by TGF-β", "setting": "[1]", "result": "inhibited"}, {"measurement": "ALT", "setting": "[2]", "result": "96.1 ± 17.96", "unit": "IU/L"}, {"measurement": "AST", "setting": "[2]", "result": "159.6 ± 26.73", "unit": "IU/L"}, {"measurement": "TG", "setting": "[2]", "result": "28.3 ± 4.84", "unit": "mg/dL"}, {"measurement": "tissue fibrosis (renal)", "setting": "renal fibrosis model", "result": "suppressing tissue fibrosis"}]}]}
